Data from US20110166206A1, “UBIQUILIN REGULATION OF PRESENILIN ENDOPROTEOLYSIS, AND SUPPRESSION OF POLYGLUTAMINE-INDUCED TOXICITY IN CELLS” (UNIVERSITY OF MARYLAND BIOTECHNOLOGY INSTITUTE, priority 2005, published 2011).

Columns and labels:
endogenous PS1 NTF = assay: UBQLN overexpression in wild-type HEK293 cells, endogenous PS1 NTF immunoblot; assay type: cell-based; conditions: normal HEK293 cells
Procedure: (C) Endogenous PS fragment levels were analyzed in HEK293 cells that were transfected with increasing amounts of UBQLN1 or UBQLN2 expression plasmids. Equivalent amounts of protein lysates were separated by 10% SDS-PAGE and immunoblotted with anti-PS1 NTF antibody. The filter was then reprobed with anti-ubiquilin antibody to ensure overexpression of UBQLN and with an anti-actin antibody to ensure equal protein loading. Overexpression of UBQLN decreases PS1 NTF levels and the extent of reduction was quantified again by densitometric analysis. Graph is quantification of untransfected and […] UBQLN cDNA plasmid transfected lanes.
Preparation of protein lysates, SDS-PAGE and immunoblotting of proteins were described previously. Primary antibodies used were rabbit anti-PS2 loop and rabbit anti-PS2 NH,-terminus, both raised to GST-PS2 fusion proteins; rabbit anti-ubiquilin [43] which reacts with UBQLN1 and UBQLN2 polypeptides; rat anti-PS1 NH2,-terminus (Chemicon International, Temecula, Calif.); rabbit anti-PS1 loop raised to GST-PS1 fusion proteins; goat anti-p27 and goat anti-actin (Santa Cruz Biotechnology, Santa Cruz, Calif.); mouse monoclonal anti-tubulin (Sigma-Aldrich, St. Louis, Mo.); rabbit anti-nicastrin (Abeam, Cambridge, Mass.), rabbit anti-Pen-2 (Zymed, San Francisco, Calif.); and rabbit anti-Aph-la (Covance, Berkeley, Calif.). […]

PS2 NTF = assay: Cycloheximide time course of PS2 fragment production in PS2 inducible cells with or without UBQLN1 transfection; assay type: cell-based, human
Procedure: (A) Time course experiment using ponA-induced PS2 cell line cultures transfected with or without UBQLN1 expression plasmids were treated with […] cycloheximide for 0-6 hours. Equal amounts of protein lysate were separated by 8.5% SDS-PAGE and subsequently immunoblotted with anti-UBQLN antibody. Transfected cells reveal a 4-fold increase in UBQLN1 levels. Next, the protein lysates were immunoblotted using anti-PS2 NH,-terminal antibody to detect FL and NTF PS2 levels, as indicated. Note both FL PS2 turnover and NTF production levels in transfected versus untransfected cell lysates.
(B) Same experiment as (A) except FL PS expression was not induced using PonA.
(C) Graphs showing relative levels of PS2 polypeptides in PS2 inducible cell lysates after densitometric analysis of the immunoreactive bands shown in panels A and B. The levels were calculated by normalization of the signals relative to that in Lane 1. The Microsoft Excel program was used to produce a best-fit line for each graph. […] However, this is completely opposite of NTF levels. UBQLN not only decreases NTF levels at every time-point in the experiment, but it also slows the rate of NTF production, as determined by measuring the slope of each line.
HeLa and HEK293 cells were grown in DMEM supplemented with 10% FBS. PS1 and S2 inducible cell lines were generated by transfection of the pERV-expressing HEK293 cell line (Stratgene, IaIolla, Calif.) with FL human PS2 cDNA under the control of ponasteroneA (PonA)-inducible cassette in plasmid pEGSH (Stratagene). Stable integration of the pEGSH plasmid was achieved by selection for hygromycin resistance. PS expression was induced by adding PonA (final cont. 10 pM) to the medium. For proteasome inhibition studies, cultures were treated with 40 uM MG132 (Calbiochem, San Diego, Calif.) for time periods as indicated. […]
To this end, protein synthesis was inhibited using cyclohexamide (CHX) and PS fragment production was monitored over a six-hour time period in UBQLN transfected and untransfected lysates that were either induced or uninduced for PS expression. […]

## UBQLN1: PS-interacting protein ubiquilin-1, overexpressed in cells from a cDNA expression plasmid
Endogenous PS1 NTF
  reduction of endogenous PS1 NTF levels: approximately 1.7 fold
PS2 NTF; PS induced and uninduced cells treated with CHX
  rate of PS2 NTF production: slows the rate of PS2 NTF production
PS2 NTF; transfected vs untransfected, UBQLN immunoblot
  UBQLN1 overexpression level in transfected lysates: 4 fold
